Where two headings read alike, the source gives them in different places.
Experiments:
Assay type in all cases: in vivo
[1] = tested on: Erysiphe graminis tritici (powdery mildew); experiment: Test 1 greenhouse foliar spray screen, powdery mildew on wheat; conditions: disease control rating, foliar spray on wheat, 400 ppm (+++ at 100 ppm)
[2] = tested on: Pyricularia oryzae (rice blast); experiment: whole plant or invertebrate; conditions: disease control rating, foliar spray on rice, 400 ppm (+++ at 100 ppm)
[3] = tested on: Puccinia recondita tritici (leaf rust); experiment: Test 1 greenhouse foliar spray screen, leaf rust on wheat; conditions: disease control rating, foliar spray on wheat, 400 ppm (+++ at 100 ppm)
[4] = tested on: Botrytis cinerea (gray mold); experiment: Test 1 greenhouse foliar spray screen, gray mold on grape berries; conditions: disease control rating, spray on grape berries, 400 ppm (+++ at 100 ppm)
[5] = tested on: Pseudoperonospora cubensis (downy mildew); experiment: Test 1 greenhouse foliar spray screen, downy mildew on squash; conditions: for DOWN MDEW: disease control rating, foliar spray on squash, 400 ppm (+++ at 100 ppm)
[6] = tested on: Cercospora beticola (leaf spot); experiment: Test 1 greenhouse foliar spray screen, leaf spot on sugar beet; conditions: disease control rating, foliar spray on sugar beet, 400 ppm (+++ at 100 ppm)
[7] = tested on: Venturia inaequalis (apple scab); experiment: Test 1 greenhouse foliar spray screen, apple scab on apple seedling; conditions: disease control rating, foliar spray on apple seedling, 400 ppm (+++ at 100 ppm)
[8] = tested on: Septoria tritici (leaf blotch); experiment: Test 1 greenhouse foliar spray screen, leaf blotch on wheat; conditions: disease control rating, foliar spray on wheat, 400 ppm (+++ at 100 ppm)
[9] = tested on: southern armyworm (Spodopetra eridania Cramer); experiment: Mite/insect screen, SAW; conditions: percent mortality; for mortality at 200 ppm / mortality at 400 ppm: Spodoptera eridania, read-out: SAW RESULTS %
Summary of the method: (§1)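 Formulation: acetone/alcohol 50:50 + sulfonate/nonionic emulsifiers, water-diluted to indicated concs. Spray both leaf surfaces to runoff, 10 psi; dry 1 h. Armyworm: 2 excised uninfested leaves in Petri dish. Score % mortality after standard exposure.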

[10] = tested on: Twospotted spider mites (Tetranychus urticae Koch); experiment: Mite/insect screen, SM; conditions: percent mortality; for mortality at 200 ppm / mortality at 400 ppm: Tetranychus urticae, read-out: SM RESULTS %
Summary of the method: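 Compounds dissolved in 50:50 acetone/alcohol containing sulfonate/nonionic emulsifier blends, then diluted with water to the indicated concentrations. Leaves sprayed on both surfaces to runoff at 10 psi and dried one hour. Percent mortality scored after standard exposure periods.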

[11] = tested on: melon aphids (Aphis gossypii Glover); experiment: Mite/insect screen, MA; conditions: percent mortality; for mortality at 200 ppm / mortality at 400 ppm: Aphis gossypii, read-out: MA RESULTS %
Summary of the method: as §1

corn rootworm = experiment: Mite/insect screen, CRW; conditions: percent mortality; for mortality at 12 ppm / mortality at 24 ppm: read-out: CRW RESULTS %
Summary of the method: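 Percent mortality is evaluated once the standard exposure period ends. Test material is applied as a water dilution of an acetone/alcohol (50:50) stock carrying two sulfonate/nonionic emulsifiers (23 and 13 g per liter).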

[12] = foliar, rate 200 ppm, foliar spray on squash
[13] = foliar, rate 400 ppm, foliar spray on squash

Row | Compound | POWD MDEW [1] | RICE BLAST [2] | LEAF RUST [3] | GRAY MOLD [4] | DOWN MDEW [5] | LEAF SPOT [6] | APPL SCAB [7] | LEAF BLOT [8] | mortality at 200 ppm ([9]; SAW, SM & MA RATE 200 PPM) [%] | mortality at 200 ppm ([10]; SAW, SM & MA RATE 200 PPM) [%] | mortality at 200 ppm ([11]; SAW, SM & MA RATE 200 PPM) [%] | mortality at 12 ppm (corn rootworm; CRW RATE 12.00 PPM) [%] | mortality at 200 ppm [9, 12] [%] | mortality at 200 ppm [10, 12] [%] | mortality at 200 ppm [11, 12] [%] | mortality at 12 ppm (corn rootworm; CRW rate 12.00 ppm) [%] | mortality at 400 ppm [9, 13] [%] | mortality at 400 ppm [10, 13] [%] | mortality at 400 ppm [11, 13] [%] | mortality at 24 ppm (corn rootworm; CRW rate 24.00 ppm) [%] | also measured
1 | Clc1cccc2c(NCCc3ccc4ccccc4c3)ccnc12 [Example 156, 8-chloro-N-[2-(2-naphthyl)ethyl]-4-quinolinamine] | - (0-19% control at 400 ppm) | + (20-89% control at 400 ppm) | + (20-89% control at 400 ppm) | - (0-19% control at 400 ppm) | +++ (90-100% control at 100 ppm) | - (0-19% control at 400 ppm) | - (0-19% control at 400 ppm) | - (0-19% control at 400 ppm) | 0 | 0 | 0 | 0 | – | – | – | – | – | – | – | – | SAW RESULTS % ([9]; SAW, SM & MA RATE 200 PPM): 0%; SM RESULTS % ([10]; SAW, SM & MA RATE 200 PPM): 0%; MA RESULTS % ([11]; SAW, SM & MA RATE 200 PPM): 0%; CRW RESULTS % (corn rootworm; CRW RATE 12.00 PPM): 0%
2 | Fc1cccc2c(NCCc3cccc4ccccc34)ccnc12 [Example 158, 8-fluoro-N-[2-(1-naphthyl)ethyl]-4-quinolinamine] | + (20-89% control at 400 ppm) | +++ (90-100% control at 100 ppm) | +++ (90-100% control at 100 ppm) | - (0-19% control at 400 ppm) | +++ (90-100% control at 100 ppm) | + (20-89% control at 400 ppm) | - (0-19% control at 400 ppm) | +++ (90-100% control at 100 ppm) | 0 | 0 | 0 | 0 | – | – | – | – | – | – | – | – | –
3 | Cc1ccc(CCNc2ccnc3c(F)cccc23)s1 [Example 162, 8-fluoro-N-[2-(5-methyl-2-thienyl)ethyl]-4-quinolinamine] | + (20-89% control at 400 ppm) | + (20-89% control at 400 ppm) | ++ (90-100% control at 400 ppm) | - (0-19% control at 400 ppm) | +++ (90-100% control at 100 ppm) | - (0-19% control at 400 ppm) | - (0-19% control at 400 ppm) | - (0-19% control at 400 ppm) | 0 | 0 | 0 | 0 | – | – | – | – | – | – | – | – | –
4 | Fc1cccc2c(NCCc3ccc(Cl)s3)ccnc12 [Example 163, N-[2-(5-chloro-2-thienyl)ethyl]-8-fluoro-4-quinolinamine] | ++ (90-100% control at 400 ppm) | + (20-89% control at 400 ppm) | +++ (90-100% control at 100 ppm) | - (0-19% control at 400 ppm) | ++ (90-100% control at 400 ppm) | +++ (90-100% control at 100 ppm) | - (0-19% control at 400 ppm) | - (0-19% control at 400 ppm) | 0 | 0 | 0 | 0 | – | – | – | – | – | – | – | – | –
5 | Fc1cccc2c(NCCc3c[nH]cn3)ccnc12 [Example 164, 8-fluoro-N-[2-(1H-imidazol-4-yl)ethyl]-4-quinolinamine] | - (0-19% control at 400 ppm) | + (20-89% control at 400 ppm) | + (20-89% control at 400 ppm) | + (20-89% control at 400 ppm) | ++ (90-100% control at 400 ppm) | + (20-89% control at 400 ppm) | - (0-19% control at 400 ppm) | - (0-19% control at 400 ppm) | 0 | 0 | 0 | 0 | – | – | – | – | – | – | – | – | –
6 | Clc1ccc2c(NCCC3=CCCCC3)ccnc2c1 [Example 165, 7-chloro-N-[2-(1-cyclohexenyl)ethyl]-4-quinolinamine] | + (20-89% control at 400 ppm) | ++ (90-100% control at 400 ppm) | ++ (90-100% control at 400 ppm) | - (0-19% control at 400 ppm) | +++ (90-100% control at 100 ppm) | +++ (90-100% control at 100 ppm) | + (20-89% control at 400 ppm) | - (0-19% control at 400 ppm) | – | – | – | – | 0 | 0 | 0 | 0 | – | – | – | – | activity against downy mildew ([5]; summary statement in the description): particularly excellent activity; mortality at 400 ppm ([9]; SAW, SM & MA RATE 400 PPM): 0%; mortality at 400 ppm ([10]; SAW, SM & MA RATE 400 PPM): 0%; mortality at 400 ppm ([11]; SAW, SM & MA RATE 400 PPM): 0%; mortality at 24 ppm (corn rootworm; CRW RATE 24.00 PPM): 0%
7 | Clc1ccc2c(NCCc3ccc4ccccc4c3)ccnc2c1 [Example 166, 7-chloro-N-[2-(2-naphthyl)ethyl]-4-quinolinamine] | + (20-89% control at 400 ppm) | + (20-89% control at 400 ppm) | + (20-89% control at 400 ppm) | - (0-19% control at 400 ppm) | +++ (90-100% control at 100 ppm) | - (0-19% control at 400 ppm) | - (0-19% control at 400 ppm) | + (20-89% control at 400 ppm) | – | – | – | – | 0 | 0 | 0 | 0 | 0 | 0 | 0 | 0 | –
8 | Fc1ccc2nccc(NCCC3=CCCCC3)c2c1 [Example 168, N-[2-(1-cyclohexenyl)ethyl]-6-fluoro-4-quinolinamine] | + (20-89% control at 400 ppm) | ++ (90-100% control at 400 ppm) | ++ (90-100% control at 400 ppm) | - (0-19% control at 400 ppm) | +++ (90-100% control at 100 ppm) | - (0-19% control at 400 ppm) | - (0-19% control at 400 ppm) | - (0-19% control at 400 ppm) | – | – | – | – | 0 | 0 | 0 | 0 | 0 | 0 | 0 | 0 | –
9 | FC(F)(F)c1ccc2c(NCCc3ccc4ccccc4c3)ccnc2c1 [Example 169, N-[2-(2-naphthyl)ethyl]-7-(trifluoromethyl)-4-quinolinamine] | + (20-89% control at 400 ppm) | ++ (90-100% control at 400 ppm) | + (20-89% control at 400 ppm) | - (0-19% control at 400 ppm) | ++ (90-100% control at 400 ppm) | - (0-19% control at 400 ppm) | - (0-19% control at 400 ppm) | - (0-19% control at 400 ppm) | – | – | – | – | 0 | 0 | 0 | 0 | 0 | 0 | 0 | 0 | –

— patent EP0326331B1, “Substituted quinolines and cinnolines” (Dow AgroSciences LLC, priority 1988, dated 1989)
